The values below come from ChEMBL document CHEMBL2390888, “Identification and synthesis of N-(thiophen-2-yl) benzamide derivatives as BRAF(V600E) inhibitors” (Bioorg Med Chem Lett, 2013).

Structures are written as SMILES. Calls of active or inactive are those of the source. No cut-off for these calls is given here.

Test [1] deals with Serine/threonine-protein kinase B-raf (Homo sapiens), P15056 [V600E]. Description: Inhibition of BRAF V600E mutant (unknown origin) assessed as inhibition of MEK phosphorylation at 2 uM by ELISA relative to control. A general note: An ELISA detects its analyte on a solid surface through an enzyme-linked reagent.
Sequence of Serine/threonine-protein kinase B-raf (Homo sapiens), P15056 [V600E] (P15056 whole entry V600E): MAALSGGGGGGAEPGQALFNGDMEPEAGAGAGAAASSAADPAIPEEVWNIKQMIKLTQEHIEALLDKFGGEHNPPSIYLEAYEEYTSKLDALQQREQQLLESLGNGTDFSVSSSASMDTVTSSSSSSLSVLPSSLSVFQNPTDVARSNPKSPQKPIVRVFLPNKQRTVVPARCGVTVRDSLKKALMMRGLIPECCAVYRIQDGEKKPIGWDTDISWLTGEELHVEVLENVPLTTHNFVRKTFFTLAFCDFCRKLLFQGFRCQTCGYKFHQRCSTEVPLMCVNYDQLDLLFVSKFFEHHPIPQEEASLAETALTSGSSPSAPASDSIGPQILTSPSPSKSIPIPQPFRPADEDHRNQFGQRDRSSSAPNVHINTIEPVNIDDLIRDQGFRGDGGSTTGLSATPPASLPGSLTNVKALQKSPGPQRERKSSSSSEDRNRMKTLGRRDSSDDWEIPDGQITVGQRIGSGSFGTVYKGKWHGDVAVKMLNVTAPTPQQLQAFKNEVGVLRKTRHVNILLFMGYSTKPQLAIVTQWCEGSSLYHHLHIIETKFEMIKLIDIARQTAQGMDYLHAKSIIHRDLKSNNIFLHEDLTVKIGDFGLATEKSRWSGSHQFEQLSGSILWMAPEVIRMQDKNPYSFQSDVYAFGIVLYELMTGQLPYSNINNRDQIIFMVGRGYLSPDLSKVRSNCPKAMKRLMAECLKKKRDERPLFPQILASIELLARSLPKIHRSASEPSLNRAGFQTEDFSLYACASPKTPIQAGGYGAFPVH
Test [2] has the same test system. Description: Inhibition of BRAF V600E mutant (unknown origin) assessed as inhibition of MEK phosphorylation at 1 uM by ELISA relative to control.
Test [3] has as its target Serine/threonine-protein kinase B-raf (Homo sapiens, UniProt P15056, V600E). Description: Inhibition of BRAF V600E mutant (unknown origin) assessed as inhibition of MEK phosphorylation by ELISA.

Sequence of Serine/threonine-protein kinase B-raf (P15056 2-766 V600E limits assumed): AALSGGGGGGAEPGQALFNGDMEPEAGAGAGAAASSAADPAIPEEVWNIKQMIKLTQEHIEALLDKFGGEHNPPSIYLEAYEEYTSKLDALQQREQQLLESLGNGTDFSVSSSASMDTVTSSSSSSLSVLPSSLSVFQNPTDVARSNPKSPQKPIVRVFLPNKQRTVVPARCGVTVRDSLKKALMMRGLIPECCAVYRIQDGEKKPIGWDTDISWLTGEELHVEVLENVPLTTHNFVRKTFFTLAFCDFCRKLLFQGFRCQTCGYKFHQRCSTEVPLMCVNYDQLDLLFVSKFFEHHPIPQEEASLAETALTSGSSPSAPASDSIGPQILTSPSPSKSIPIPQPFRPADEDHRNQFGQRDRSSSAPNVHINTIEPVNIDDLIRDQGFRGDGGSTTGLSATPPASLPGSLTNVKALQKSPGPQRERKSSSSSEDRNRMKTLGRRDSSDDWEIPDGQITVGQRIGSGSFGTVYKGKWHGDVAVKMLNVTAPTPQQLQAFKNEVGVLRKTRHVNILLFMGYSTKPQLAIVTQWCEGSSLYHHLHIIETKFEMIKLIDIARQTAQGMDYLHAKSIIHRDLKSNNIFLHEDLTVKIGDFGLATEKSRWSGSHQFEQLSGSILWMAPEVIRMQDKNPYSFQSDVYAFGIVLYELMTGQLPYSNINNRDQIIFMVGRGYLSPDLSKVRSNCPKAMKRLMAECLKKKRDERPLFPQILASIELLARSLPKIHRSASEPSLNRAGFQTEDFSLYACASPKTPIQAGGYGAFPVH

One may read the inhibition as the relative decrease from the control value, in per cent. For the compound `CCOC(=O)c1sc(NC(=O)c2ccc(OC)cc2)c(C#N)c1C`, the inhibition in test [1] was determined as 15%.

In the case of `CCOC(=O)c1sc(NC(=O)c2ccc(N3CCN(C)CC3)cc2)c(C#N)c1C`, the inhibition result in test [1] is “inactive”.

Consider `CCOC(=O)c1sc(NC(=O)c2cccc([N+](=O)[O-])c2)c(C#N)c1C`, for which the inhibition in test [1] is 36%.

`COC(=O)c1sc(NC(=O)c2cc(OC)cc(OC)c2)c(C#N)c1C`: the inhibition result in test [1] is “inactive”.

For `CCOC(=O)c1sc(NC(=O)c2ccc(Cl)c(C(F)(F)F)c2)c(C#N)c1C`, the inhibition in test [1] is 60%.

As for `CCOC(=O)c1sc(NC(=O)c2ccc(C)cc2)c(C#N)c1C`, the inhibition in test [1] came out at 48%.

As for `CCOC(=O)c1sc(NC(=O)c2ccncc2)c(C#N)c1C`, the inhibition in test [2] came to 22%.

Take `CCOC(=O)c1sc(NC(=O)c2cccc(NS(C)(=O)=O)c2)c(C#N)c1C`: the inhibition result in test [2] was “inactive”.

Regarding `CCOC(=O)c1sc(NC(=O)c2ccc(C(C)(C)C)cc2)c(C#N)c1C`, the inhibition in test [1] amounted to 46%.

As usually defined, the IC50 is the midpoint of a concentration-inhibition curve. For `CCOC(=O)c1sc(NC(=O)c2ccc(F)cc2)c(C(=O)Nc2ccccc2)c1C`, in test [3], the concentration for half-maximal inhibition (IC50) amounted to 630 nM. The figures for the inhibition in test [2] and in test [1] were 66% and 87%, respectively.

In the case of `CCOC(=O)c1sc(NC(=O)c2ccccc2)c(C(=O)OCC)c1C`, the inhibition result in test [1] was “inactive”.

Consider `CCOc1ccc(C(=O)Nc2sc(C(=O)OC(C)C)c(C)c2C#N)cc1`, for which, in test [1], the inhibition entry is “inactive”.

For `CCOC(=O)c1sc(NC(=O)c2ccc(Cl)cc2)c(C#N)c1C`, the inhibition in test [1] came out at 60%.

Turning to `COC(=O)c1sc(NC(=O)c2cccc(C)c2)c(C#N)c1C`, the inhibition result in test [1] is “inactive”.

As for `CCOC(=O)c1sc(NC(=O)c2cccnc2)c(C#N)c1C`, the inhibition in test [2] came to 20%.

With `CCOC(=O)c1sc(NC(=O)c2ccc(NC(C)=O)cc2)c(C#N)c1C`, in test [2], the inhibition entry is “inactive”.

On to `CCOC(=O)c1sc(NC(=O)c2ccc(Br)cc2)c(C#N)c1C`, for which the inhibition result in test [1] is “inactive”.

In the case of `CCOC(=O)c1sc(NC(=O)c2ccc(OCC)cc2)c(C#N)c1C`, the concentration for half-maximal inhibition (IC50) in test [3] is 1160 nM. Moreover, in test [1], the inhibition stood at 69%.

As for `CCOC(=O)c1sc(NC(=O)c2cc(OC)cc(OC)c2)c(C#N)c1C`, the IC50 in test [3] was 770 nM. Further, the values for the inhibition in test [2] and in test [1] were 60% and 85%, respectively.

Regarding `CCOC(=O)c1sc(NC(=O)c2ccc(Cl)c([N+](=O)[O-])c2)c(C#N)c1C`, in test [3], the IC50 worked out at 2160 nM. Besides, in test [1], the inhibition worked out at 51%.

With `CCOC(=O)c1sc(NC(=O)c2ccc(C)c(OC)c2)c(C#N)c1C`, the inhibition result in test [1] was “inactive”.

With `CCOC(=O)c1sc(NC(=O)c2cccc(NC(C)=O)c2)c(C#N)c1C`, in test [2], the inhibition amounted to 17%.

For the compound `CCOC(=O)c1sc(NC(=O)c2ccccn2)c(C#N)c1C`, the inhibition in test [2] amounted to 39%.

Regarding `CCOC(=O)c1sc(NC(=O)c2ccccc2F)c(C(N)=O)c1C`, the inhibition result in test [1] was “inactive”.

Consider `Cc1c(C(=O)OC(C)C)sc(NC(=O)c2ccc(F)cc2)c1C#N`, for which, in test [1], the inhibition entry was “inactive”.

As for `CCOC(=O)c1sc(NC(=O)c2ccccc2C)c(C#N)c1C`, in test [3], the IC50 was 2010 nM. Also, the inhibition in test [1] was found to be 52%.

Regarding `CCOC(=O)c1sc(NC(=O)c2cccc(OC)c2)c(C#N)c1C`, the inhibition in test [1] is 13%.

Turning to `CCOC(=O)c1sc(NC(=O)c2ccccc2F)c(C#N)c1C`, in test [1], the inhibition turned out to be 51%.

As to `CCOC(=O)c1sc(NC(=O)c2ccco2)c(C#N)c1C`, in test [1], the inhibition result is “inactive”.

As to `CCOC(=O)c1sc(NC(=O)c2ccc(OC)c(OC)c2)c(C#N)c1C`, in test [1], the inhibition came to 32%.

As to `CCOC(=O)c1sc(NC(=O)c2ccc(Cl)nc2)c(C#N)c1C`, the inhibition in test [2] is 10%.

Take `CCOC(=O)c1sc(NC(=O)c2ccccc2OC)c(C#N)c1C`: the inhibition in test [1] worked out at 42%.

For the compound `CCOC(=O)c1sc(NC(=O)c2cccc(C)c2)c(C#N)c1C`, the inhibition in test [1] was 50%.

Regarding `CCCS(=O)(=O)Nc1cc(F)c(C(=O)Nc2sc(C(=O)OCC)c(C)c2C#N)c(F)c1`, the inhibition in test [2] came out at 34%.

As for `COC(=O)c1sc(NC(=O)c2ccccc2OC)c(C#N)c1C`, the inhibition result in test [1] is “inactive”.

With `CCOC(=O)c1sc(NC(=O)c2ccc(Cl)cc2)c(C(N)=O)c1C`, the inhibition in test [1] was 26%.

For the compound `CCOC(=O)c1sc(NC(=O)c2cccc(C#N)c2)c(C#N)c1C`, the inhibition in test [1] was found to be 40%.

`CCOC(=O)c1sc(NC(=O)c2ccc(Cl)c(Cl)c2)c(C#N)c1C`: in test [1], the inhibition worked out at 36%.

On to `Cc1c(C(=O)OC(C)C)sc(NC(=O)c2ccc(Cl)c(Cl)c2)c1C#N`, for which, in test [1], the inhibition was determined as 42%.

Regarding `CCOC(=O)c1sc(NC(=O)c2ccc(NS(C)(=O)=O)cc2)c(C#N)c1C`, the inhibition entry in test [2] was “inactive”.

Turning to `CCOC(=O)c1sc(NC(=O)c2ccccc2Cl)c(C#N)c1C`, in test [1], the inhibition entry was “inactive”.

As to `CCOC(=O)c1sc(NC(=O)c2ccccc2I)c(C(=O)OC)c1C`, in test [1], the inhibition entry is “inactive”.

Regarding `CCOC(=O)c1sc(NC(=O)c2cccc(Cl)c2)c(C#N)c1C`, in test [1], the inhibition worked out at 57%.

In the case of `CCCOC(=O)c1c(NC(=O)c2ccccc2F)sc(C(=O)OCC)c1C`, in test [1], the inhibition entry was “inactive”.

On to `CCOC(=O)c1sc(NC(=O)c2ccccc2NS(C)(=O)=O)c(C#N)c1C`, for which, in test [2], the inhibition entry was “inactive”.

Take `O=C1NC(=S)NC(=O)C1=Cc1ccc(-c2ccc(Br)cc2)o1`: the IC50 in test [3] is 470 nM.

Take `CCOC(=O)c1sc(NC(=O)c2ccc(Cl)c(F)c2)c(C#N)c1C`: the inhibition in test [1] was 59%.

Turning to `CCOC(=O)c1sc(NC(=O)c2ccc(C(=O)OC)cc2)c(C#N)c1C`, the inhibition in test [1] is 54%.
